Source: patent publication US20250145585A1, “HETEROCYCLIC INHIBITORS OF IGF-1R FOR TREATMENT OF DISEASE” (HORIZON THERAPEUTICS IRELAND DAC, priority 2023, published 2025)

Target: T1, IGF-1R (Homo sapiens, UniProt P08069)
T1 construct: expressed in transfected cells
Experiment: Example B-1: IGF-1R Assay (PC3 cells stimulated with IGF1, AlphaLISA on cell lysates)
Assay type: cell-based
Details: compound two hours, IGF1 200 ng/mL for 30 min, read-out: IC50, Biological Activity against IGF-1R (Table B1)
How it was run: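 PC3 cells serum-starved 2 h, treated 2 h with 3-fold serially diluted compound, then stimulated 30 min with IGF1 (200 ng/mL final). Lysates analysed by AlphaLISA; % inhibition calculated relative to vehicle and EC80 controls, IC50 derived.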

T1 sequence (P08069 31-1367): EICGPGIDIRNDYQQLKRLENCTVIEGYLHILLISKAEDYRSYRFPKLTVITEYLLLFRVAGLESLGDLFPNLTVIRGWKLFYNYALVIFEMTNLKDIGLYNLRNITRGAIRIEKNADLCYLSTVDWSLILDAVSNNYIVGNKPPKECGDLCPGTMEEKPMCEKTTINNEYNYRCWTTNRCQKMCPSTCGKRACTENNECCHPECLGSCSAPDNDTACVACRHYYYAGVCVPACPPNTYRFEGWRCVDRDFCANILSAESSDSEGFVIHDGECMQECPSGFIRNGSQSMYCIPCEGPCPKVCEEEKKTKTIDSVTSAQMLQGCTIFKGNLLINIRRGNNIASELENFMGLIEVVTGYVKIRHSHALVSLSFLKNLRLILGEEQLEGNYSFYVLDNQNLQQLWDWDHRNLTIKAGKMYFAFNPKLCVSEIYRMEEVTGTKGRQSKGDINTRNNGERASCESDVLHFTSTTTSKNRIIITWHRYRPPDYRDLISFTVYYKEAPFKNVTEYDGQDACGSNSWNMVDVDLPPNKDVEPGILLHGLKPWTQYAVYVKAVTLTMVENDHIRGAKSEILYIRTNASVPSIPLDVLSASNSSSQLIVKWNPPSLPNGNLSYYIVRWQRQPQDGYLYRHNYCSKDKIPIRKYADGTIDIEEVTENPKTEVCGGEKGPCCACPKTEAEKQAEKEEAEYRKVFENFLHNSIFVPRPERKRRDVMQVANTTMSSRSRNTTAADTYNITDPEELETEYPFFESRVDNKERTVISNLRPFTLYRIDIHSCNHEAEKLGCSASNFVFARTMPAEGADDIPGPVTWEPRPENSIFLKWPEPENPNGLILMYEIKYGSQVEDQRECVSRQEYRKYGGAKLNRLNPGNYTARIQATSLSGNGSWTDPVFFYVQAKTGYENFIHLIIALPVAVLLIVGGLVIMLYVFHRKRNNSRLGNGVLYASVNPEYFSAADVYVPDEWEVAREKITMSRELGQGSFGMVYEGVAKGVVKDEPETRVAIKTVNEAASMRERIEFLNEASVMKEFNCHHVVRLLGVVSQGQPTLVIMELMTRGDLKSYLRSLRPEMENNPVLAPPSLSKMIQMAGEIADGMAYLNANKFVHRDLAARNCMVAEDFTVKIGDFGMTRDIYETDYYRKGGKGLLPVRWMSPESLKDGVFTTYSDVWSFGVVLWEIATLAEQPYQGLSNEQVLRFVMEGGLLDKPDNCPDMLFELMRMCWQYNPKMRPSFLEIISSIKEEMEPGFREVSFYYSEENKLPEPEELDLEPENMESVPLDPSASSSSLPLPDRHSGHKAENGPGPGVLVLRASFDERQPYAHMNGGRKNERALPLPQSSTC

Row | Structure (SMILES) | IC50 [nM]
1 | Cn1cc(NC(=O)Nc2cc(CN3C(=O)N(c4ccc(SC(F)(F)F)cc4)C(=O)C3(C)C)ccn2)cn1 [Compound 350, 1-(4-((5,5-dimethyl-2,4-dioxo-3-(4-((trifluoromethyl)thio)phenyl)imidazolidin-1-yl)methyl)pyridin-2-yl)-3-(1-methyl-1H-pyrazol-4-yl)urea] | ≤ 500
2 | COc1cc(NC(=O)Nc2cc(CN3C(=O)N(c4ccc(SC(F)(F)F)cc4)C(=O)C3(C)C)ccn2)ccc1O[C@H]1C[C@@H](N(C)C)C1 [Compound 351, 1-(4-((5,5-dimethyl-2,4-dioxo-3-(4-((trifluoromethyl)thio)phenyl)imidazolidin-1-yl)methyl)pyridin-2-yl)-3-(4-((1s,3s)-3-(dimethylamino)cyclobutoxy)-3-methoxyphenyl)urea] | ≤ 500
3 | CC1(C)C(=O)N(c2ccc(SC(F)(F)F)cc2)C(=O)N1Cc1ccnc(Nc2ncc[nH]2)c1 [Compound 352, 1-((2-((1H-imidazol-2-yl)amino)pyridin-4-yl)methyl)-5,5-dimethyl-3-(4-((trifluoromethyl)thio)phenyl) imidazolidine-2,4-dione] | ≤ 500
4 | Cc1ccncc1Nc1cc(CN2C(=O)N(c3ccc(SC(F)(F)F)cc3)C(=O)C2(C)C)ccn1 [Compound 358, 5,5-dimethyl-1-((2-((4-methylpyridin-3-yl)amino)pyridin-4-yl)methyl)-3-(4-((trifluoromethyl)thio)phenyl) imidazolidine-2,4-dione] | ≤ 500
5 | CN(C)C(=O)c1cncc(Nc2cc(CN3C(=O)N(c4ccc(SC(F)(F)F)cc4)C(=O)C3(C)C)ccn2)c1 [Compound 359, 5-((4-((5,5-dimethyl-2,4-dioxo-3-(4-((trifluoromethyl)thio)phenyl)imidazolidin-1-yl)methyl)pyridin-2-yl)amino)-N,N-dimethylnicotinamide] | ≤ 500
6 | CC1(C)C(=O)N(c2ccc(SC(F)(F)F)cc2)C(=O)N1Cc1ccnc(NC(=O)c2cccnc2)c1 [Compound 360, N-(4-((5,5-dimethyl-2,4-dioxo-3-(4-((trifluoromethyl)thio)phenyl)imidazolidin-1-yl)methyl)pyridin-2-yl)nicotinamide] | ≤ 500
7 | CNC(=O)Nc1cc(CN2C(=O)N(c3ccc(SC(F)(F)F)cc3)C(=O)C2(C)C)ccn1 [Compound 361, 1-(4-((5,5-dimethyl-2,4-dioxo-3-(4-((trifluoromethyl)thio)phenyl)imidazolidin-1-yl)methyl)pyridin-2-yl)-3-methylurea] | ≤ 500
8 | CC1(C)C(=O)N(c2ccc(SC(F)(F)F)cc2)C(=O)N1Cc1ccnc(Nc2cccc(O)n2)c1 [Compound 362, 1-((2-((6-hydroxypyridin-2-yl)amino)pyridin-4-yl)methyl)-5,5-dimethyl-3-(4-((trifluoromethyl)thio)phenyl) imidazolidine-2,4-dione] | 500 to 2000
9 | COc1ccc(NC(=O)Nc2cc(CN3C(=O)N(c4ccc(SC(F)(F)F)cc4)C(=O)C3(C)C)ccn2)cc1 [Compound 363, 1-(4-((5,5-dimethyl-2,4-dioxo-3-(4-((trifluoromethyl)thio)phenyl)imidazolidin-1-yl)methyl)pyridin-2-yl)-3-(4-methoxyphenyl)urea] | ≤ 500
10 | COc1cccc(NC(=O)Nc2cc(CN3C(=O)N(c4ccc(SC(F)(F)F)cc4)C(=O)C3(C)C)ccn2)c1 [Compound 364, 1-(4-((5,5-dimethyl-2,4-dioxo-3-(4-((trifluoromethyl)thio)phenyl)imidazolidin-1-yl)methyl)pyridin-2-yl)-3-(3-methoxyphenyl)urea] | ≤ 500
11 | CC(=O)Nc1cc(CN2C(=O)N(c3ccc(SC(F)(F)F)cc3)C(=O)C2(C)C)ncn1 [Compound 365, N-(6-((5,5-dimethyl-2,4-dioxo-3-(4-((trifluoromethyl)thio)phenyl)imidazolidin-1-yl)methyl)pyrimidin-4-yl)acetamide] | ≤ 500
12 | Cc1ccccc1NC(=O)Nc1cc(CN2C(=O)N(c3ccc(SC(F)(F)F)cc3)C(=O)C2(C)C)ccn1 [Compound 366, 1-(4-((5,5-dimethyl-2,4-dioxo-3-(4-((trifluoromethyl)thio)phenyl)imidazolidin-1-yl)methyl)pyridin-2-yl)-3-(o-tolyl)urea] | ≤ 500
13 | CC1(C)C(=O)N(c2ccc(SC(F)(F)F)cc2)C(=O)N1Cc1cccc(Nc2c(Nc3ccccc3)c(=O)c2=O)n1 [Compound 367, 1-((6-((3,4-dioxo-2-(phenylamino)cyclobut-1-en-1-yl)amino)pyridin-2-yl)methyl)-5,5-dimethyl-3-(4-((trifluoromethyl)thio)phenyl) imidazolidine-2,4-dione] | 500 to 2000
14 | CC1(C)C(=O)N(c2ccc(SC(F)(F)F)cc2)C(=O)N1Cc1ccnc(NC(=O)Nc2ccc(F)cc2)c1 [Compound 368, 1-(4-((5,5-dimethyl-2,4-dioxo-3-(4-((trifluoromethyl)thio)phenyl)imidazolidin-1-yl)methyl)pyridin-2-yl)-3-(4-fluorophenyl)urea] | ≤ 500
15 | CC1(C)C(=O)N(c2ccc(SC(F)(F)F)cc2)C(=O)N1Cc1ccnc(NC2CCCC2)c1 [Compound 369, 1-((2-(cyclopentylamino)pyridin-4-yl)methyl)-5,5-dimethyl-3-(4-((trifluoromethyl)thio)phenyl) imidazolidine-2,4-dione] | ≤ 500
16 | CC(C)NC(=O)Nc1cc(CN2C(=O)N(c3ccc(SC(F)(F)F)cc3)C(=O)C2(C)C)ccn1 [Compound 370, 1-(4-((5,5-dimethyl-2,4-dioxo-3-(4-((trifluoromethyl)thio)phenyl)imidazolidin-1-yl)methyl)pyridin-2-yl)-3-isopropylurea] | ≤ 500
17 | Cc1ccc(NC(=O)Nc2cc(CN3C(=O)N(c4ccc(SC(F)(F)F)cc4)C(=O)C3(C)C)ccn2)cc1 [Compound 371, 1-(4-((5,5-dimethyl-2,4-dioxo-3-(4-((trifluoromethyl)thio)phenyl)imidazolidin-1-yl)methyl)pyridin-2-yl)-3-(p-tolyl)urea] | ≤ 500
18 | Cc1cccc(NC(=O)Nc2cc(CN3C(=O)N(c4ccc(SC(F)(F)F)cc4)C(=O)C3(C)C)ccn2)c1 [Compound 372, 1-(4-((5,5-dimethyl-2,4-dioxo-3-(4-((trifluoromethyl)thio)phenyl)imidazolidin-1-yl)methyl)pyridin-2-yl)-3-(m-tolyl)urea] | ≤ 500
19 | CC1(C)C(=O)N(c2ccc(SC(F)(F)F)cc2)C(=O)N1Cc1ccnc(NC(=O)NC2CCC(F)(F)C2)c1 (stereo not drawn) [Compound 374, 1-(3,3-difluorocyclopenty)-3-(4-((5,5-dimethyl-2,4-dioxo-3-(4-((trifluoromethyl)thio)phenyl)imidazolidin-1-yl)methyl)pyridin-2-yl)urea] | ≤ 500
20 | CC1(C)C(=O)N(c2ccc(SC(F)(F)F)cc2)C(=O)N1Cc1ccnc(NC(=O)Nc2ccccc2F)c1 [Compound 375, 1-(4-((5,5-dimethyl-2,4-dioxo-3-(4-((trifluoromethyl)thio)phenyl)imidazolidin-1-yl)methyl)pyridin-2-yl)-3-(2-fluorophenyl)urea] | ≤ 500
21 | CC1(C)C(=O)N(c2ccc(SC(F)(F)F)cc2)C(=O)N1Cc1ccnc(NC(=O)Nc2ccc(C#N)cc2)c1 [Compound 376, 1-(4-cyanophenyl)-3-(4-((5,5-dimethyl-2,4-dioxo-3-(4-((trifluoromethyl)thio)phenyl)imidazolidin-1-yl)methyl)pyridin-2-yl)urea] | ≤ 500
